# Activity calls are given as the source filed them.
# Experiments:
# Bcl-2-like protein 1 = Bcl-2-like protein 1 (Homo sapiens, UniProt Q07817); experiment: blockers of BCLXL peptide binding – biochemical, fluorescence polarization, 1536-well, selectivity assay for MCL1 inhibitor project, dose response (AID 2218)
# SUMO-activating enzyme [1] = target: T1, SUMO-activating enzyme (Homo sapiens, UniProt Q9UBT2); experiment: blockers of UBC9-mediated SUMO conjugation – biochemical, AlphaScreen, SUMOylation inhibitor project, confirmation (AID 2018); assay type: functional
# [2] = target: Induced myeloid leukemia cell differentiation protein Mcl-1 (Homo sapiens, UniProt Q07820); experiment: blockers of MCL1 binding to BIM peptide – biochemical, fluorescence polarization, BIM-BH3 peptide, 1536-well, dose response (AID 2217)
# SUMO-activating enzyme [3] = target: T1, SUMO-activating enzyme; experiment: blockers of SAE1/SAE2–UBC9 SUMO transfer – biochemical, HTRF, uHTS, primary screen (AID 2006); assay type: protein-complex assay
# [4] = target: T2, Neuropeptide Y receptor type 1 (Homo sapiens, UniProt P25929); assay type: functional;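 further: HEK293 cells with a CNG channel challenged with NPY then isoproterenol; potency as antagonist that reverses NPY suppression of cAMP signal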
# T2 sequence (P25929 whole entry): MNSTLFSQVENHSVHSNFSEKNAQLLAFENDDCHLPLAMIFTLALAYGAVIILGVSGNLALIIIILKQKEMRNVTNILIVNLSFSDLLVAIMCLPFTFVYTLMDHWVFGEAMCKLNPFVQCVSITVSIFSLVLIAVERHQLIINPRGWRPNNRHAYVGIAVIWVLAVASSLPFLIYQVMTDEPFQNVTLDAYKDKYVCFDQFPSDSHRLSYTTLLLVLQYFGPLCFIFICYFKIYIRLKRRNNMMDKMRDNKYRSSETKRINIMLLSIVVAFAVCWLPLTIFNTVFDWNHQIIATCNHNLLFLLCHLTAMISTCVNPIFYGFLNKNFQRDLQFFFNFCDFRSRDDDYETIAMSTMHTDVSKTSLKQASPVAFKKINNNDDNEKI
# [5] = target: T3, Neuropeptide Y receptor type 2 (Homo sapiens, UniProt P49146); assay type: functional, cell-based;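 further: HEK293 cells expressing the receptor and a CNG channel; stimulus was NPY near EC95 followed by isoproterenol to raise cAMP; antagonist potency measured as restoring cAMP signal that NPY suppresses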
# T3 sequence (P49146 whole entry): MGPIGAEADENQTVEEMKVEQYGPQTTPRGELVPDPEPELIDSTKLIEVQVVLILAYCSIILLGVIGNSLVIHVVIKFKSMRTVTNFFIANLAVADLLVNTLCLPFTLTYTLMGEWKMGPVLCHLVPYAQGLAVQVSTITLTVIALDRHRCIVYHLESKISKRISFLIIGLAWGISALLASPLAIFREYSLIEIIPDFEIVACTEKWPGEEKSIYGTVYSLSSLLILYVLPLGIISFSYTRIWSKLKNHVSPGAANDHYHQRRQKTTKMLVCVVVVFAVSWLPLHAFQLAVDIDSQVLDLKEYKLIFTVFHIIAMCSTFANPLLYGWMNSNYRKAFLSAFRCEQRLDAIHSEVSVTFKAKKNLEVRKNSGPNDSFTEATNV
# [6] = Luminescence Cell-Based Dose Confirmation to Identify Activators of 5'UTR Stem-Loop Driven Alpha-Synuclein mRNA Translation in H4 Neuroglioblastoma Cells. [Related pubchem assays: 1829 (Project Summary), 1814 (Primary HTS)]; assay type: functional
# H4 = experiment: Luminescence Cell-Based Dose Response HTS to Identify Activators of 5'UTR Stem-Loop Driven Prion Protein mRNA Translation in H4 Neuroglioblastoma Cells. [Related pubchem assays: 1829 (Project Summary), 1814 (Primary HTS)]; assay type: functional; conditions: Homo sapiens
# [7] = Luminescence Cell-Based Dose Response HTS to Identify Activators of Luciferase Translation or Activity in H4 […] Cells. [Related pubchem assays: 1829 (Project Summary), 1814 (Primary HTS)]; assay type: functional
# [8] = Luminescence Cell-Based Dose Response to Identify Activators of 5'UTR Stem-Loop Driven Prion Protein mRNA Translation in H4-C Neuroglioblastoma Cells. [Related pubchem assays: 1829 (Project Summary), 1814 (Primary HTS)]; assay type: functional
# [9] = Luminescence Cell-Based Dose Response to Identify Activators of Luciferase Translation or Activity in H4-C Neuroglioblastoma Cells. [Related pubchem assays: 1829 (Project Summary), 1814 (Primary HTS)]; assay type: functional
# [10] = target: T4, Neuropeptides B/W receptor type 1 (Homo sapiens, UniProt P48145); experiment: Fluorescence-based dose response cell-based high throughput screening assay to identify antagonists of the G-protein coupled receptor 7 (GPR7). [Related pubchem assays: 1952 (Screening assay (GPR7 antagonists).), 1880 (Summary AID.)]; assay type: functional
# T4 sequence (P48145 whole entry): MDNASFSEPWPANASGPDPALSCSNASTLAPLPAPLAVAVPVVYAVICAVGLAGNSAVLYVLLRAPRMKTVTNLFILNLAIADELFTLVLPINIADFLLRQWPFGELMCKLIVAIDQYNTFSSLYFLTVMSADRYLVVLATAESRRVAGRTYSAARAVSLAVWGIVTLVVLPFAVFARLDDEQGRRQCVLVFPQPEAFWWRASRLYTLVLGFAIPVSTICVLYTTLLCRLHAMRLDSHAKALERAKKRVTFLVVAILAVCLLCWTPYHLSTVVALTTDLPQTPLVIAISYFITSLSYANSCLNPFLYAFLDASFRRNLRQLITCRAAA
# [11] = target: Melanin-concentrating hormone receptor 1 (Homo sapiens, UniProt Q99705); experiment: Fluorescence-based counterscreen for antagonists of the G-protein coupled receptor 7 (GPR7): cell-based high throughput dose response assay to identify antagonists of the melanin-concentrating hormone receptor 1 (MCHR1).; assay type: functional
# [12] = A cytotoxicity screen of small molecule inhibitors of the PhoP region in Salmonella typhi identified in the primary screen. [Related pubchem assays: 1850, 1864, 1985 ]; assay type: functional
# [13] = NIH-3T3 fibroblast cytotoxicity, dose response, cytotoxicity control, cell-based, fluorescence, Alamar Blue, secondary assay (AID 2327); assay type: functional;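 further: NIH-3T3 mouse fibroblasts cultured with fluconazole at 8 µg/mL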
# [14] = Luminescence-based counterscreen assay for KLF5 inhibitors: dose response cell-based high throughput screening assay to identify cytotoxic compounds using the IEC-6 intestinal epithelial cell line. [Related pubchem assays: 1700 (Primary screen.), 1834 (Confirmation screen.), 1858 (Summary AID.), 1905 (Counterscreen.)]; assay type: functional
# [15] = NIH3T3 cell viability loss – ATP luminescence, mouse fibroblasts, counter-screen, dose response (AID 2010); assay type: functional, cell-based;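 further: cells exposed to compound for about 90 hours before reading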
# [16] = fluconazole-exposed Candida albicans growth modulators – fluorescence, retest, confirmation (AID 2467); assay type: functional, cell-based
# cells [17] = assay type: functional, cell-based
# Nonstructural protein 1 = Nonstructural protein 1 (Influenza A virus, UniProt Q194T2); assay type: functional, Influenza A virus (A/California/07/2009(H1N1))
# Paired box protein Pax-8 = Paired box protein Pax-8 (Homo sapiens, UniProt Q06710); experiment: PAX8 transcriptional activity inhibition in RMG-I – RMG-I cells, luciferase, cherry-pick, dose response (AID 687027); assay type: functional, cell-based;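 further: luciferase reporter driven by Pax8 target thyroperoxidase promoter measured by SteadyGlo luminescence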
# [18] = Trypanosoma cruzi growth suppression in host cells – NIH3T3 host cells, beta-gal luminescence, confirmation (AID 2044); assay type: functional, cell-based;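 further: intracellular parasites grown in NIH/3T3 mouse fibroblasts as host cells; luminescent beta-galactosidase reporter signal from transgenic T. cruzi replicating inside host cells; inhibitors lower the luminescence signal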
# cells [19] = assay type: functional, cell-based; remark: listed apart in the source
# INS1 = experiment: INS-1E survival protection against cytokine death – cell-based, luminescence, retest, dose response (AID 449756); assay type: functional; conditions: Rattus norvegicus;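 further: cell death triggered by IL-1 beta plus TNF-alpha plus IFN-gamma mixture; protective hits raise ATP signal compared with cytokine alone wells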
# [20] = target: T5, Heat shock factor protein 1 (Mus musculus, UniProt P38532); experiment: decrease of HSF1-responsive luciferase luminescence – cell-based, NIH3T3, dose retest, confirmation (AID 2382); assay type: functional;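 further: NIH3T3 fibroblasts with HSF1-driven luciferase reporter stressed by proteasome inhibitor MG132; luminescence from HSF1-driven luciferase expression after 8 hours of MG132 stress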
# T5 sequence (P38532 whole entry): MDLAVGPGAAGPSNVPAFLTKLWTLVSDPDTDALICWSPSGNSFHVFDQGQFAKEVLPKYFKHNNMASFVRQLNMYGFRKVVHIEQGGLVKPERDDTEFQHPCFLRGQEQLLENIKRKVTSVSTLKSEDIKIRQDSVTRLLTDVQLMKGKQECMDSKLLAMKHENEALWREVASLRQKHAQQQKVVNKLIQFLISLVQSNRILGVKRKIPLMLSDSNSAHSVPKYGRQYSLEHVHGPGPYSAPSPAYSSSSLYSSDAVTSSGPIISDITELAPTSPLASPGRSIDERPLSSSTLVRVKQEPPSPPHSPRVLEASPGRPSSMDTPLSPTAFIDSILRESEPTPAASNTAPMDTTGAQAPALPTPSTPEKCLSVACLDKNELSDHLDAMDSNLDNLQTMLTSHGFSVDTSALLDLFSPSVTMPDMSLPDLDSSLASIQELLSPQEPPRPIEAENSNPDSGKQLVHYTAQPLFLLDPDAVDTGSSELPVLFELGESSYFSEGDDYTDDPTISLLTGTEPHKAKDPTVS
# fMet-Leu-Phe receptor = fMet-Leu-Phe receptor (Homo sapiens, UniProt P21462); experiment: formyl peptide receptor binders – dose response (AID 519); assay type: functional
# [21] = blockers of HIV-1 ZM109 envelope-driven cell-cell fusion – HeLa effector, CEM target cells, luciferase, cherry-pick, dose response (AID 652058); assay type: functional, cell-based;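 further: luciferase signal from HIV-1 Env mediated cell-cell fusion of effector and target cells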
# [22] = off-target signal loss in HeLa-CEM21 co-culture – HeLa F-luc CTL cells, cherry-picked, counter-screen for HIV-1 Env fusion inhibitor project, dose response (AID 652040); assay type: functional, cell-based;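 further: potency for signal decrease marking cytotoxic or nonspecific inhibition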
# [23] = blockers of HIV-1 envelope-mediated cell-cell fusion – cherry-pick, dose response (AID 652057); assay type: functional, cell-based
# [24] = HIV-1 AD8 envelope cell-cell fusion blockers – cherry-pick, dose response (AID 652062); assay type: functional, cell-based;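 further: luciferase signal from cell-cell fusion driven by HIV-1 clade B AD8 Env; potency is for inhibitors of fusion seen as a drop in luminescence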
# [25] = viability loss in CEM21 cells – cell-based, CellTiter-Glo luminescence, cherry-picked, cytotoxicity control for viral fusion inhibitor project, dose response (AID 652042); assay type: functional;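 further: potency for signal decrease meaning cytotoxicity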
# Estrogen receptor beta [26] = target: T6, Estrogen receptor beta (Homo sapiens, UniProt Q92731); experiment: blockers of SRC-3 recruitment to ERβ – biochemical, ELISA, streptavidin-HRP readout, orthogonal assay, confirmation (AID 1060)
# Estrogen receptor beta [27] = target: T6, Estrogen receptor beta
# T6 sequence (Q92731 whole entry): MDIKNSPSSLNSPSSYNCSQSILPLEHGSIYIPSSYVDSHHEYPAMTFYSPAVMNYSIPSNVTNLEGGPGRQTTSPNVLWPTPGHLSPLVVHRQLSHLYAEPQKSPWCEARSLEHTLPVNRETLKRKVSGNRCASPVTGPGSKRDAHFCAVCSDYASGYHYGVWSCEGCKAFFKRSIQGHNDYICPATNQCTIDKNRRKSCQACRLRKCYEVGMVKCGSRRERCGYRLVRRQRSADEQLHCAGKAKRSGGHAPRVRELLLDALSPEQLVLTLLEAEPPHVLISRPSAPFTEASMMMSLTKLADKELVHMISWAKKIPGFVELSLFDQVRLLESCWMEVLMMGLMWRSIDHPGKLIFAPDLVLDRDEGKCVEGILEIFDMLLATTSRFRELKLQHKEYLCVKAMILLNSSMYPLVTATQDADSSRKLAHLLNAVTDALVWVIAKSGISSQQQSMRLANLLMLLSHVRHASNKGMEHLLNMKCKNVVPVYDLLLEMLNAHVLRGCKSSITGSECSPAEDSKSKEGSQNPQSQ
# T1 sequence (Q9UBE0 whole entry): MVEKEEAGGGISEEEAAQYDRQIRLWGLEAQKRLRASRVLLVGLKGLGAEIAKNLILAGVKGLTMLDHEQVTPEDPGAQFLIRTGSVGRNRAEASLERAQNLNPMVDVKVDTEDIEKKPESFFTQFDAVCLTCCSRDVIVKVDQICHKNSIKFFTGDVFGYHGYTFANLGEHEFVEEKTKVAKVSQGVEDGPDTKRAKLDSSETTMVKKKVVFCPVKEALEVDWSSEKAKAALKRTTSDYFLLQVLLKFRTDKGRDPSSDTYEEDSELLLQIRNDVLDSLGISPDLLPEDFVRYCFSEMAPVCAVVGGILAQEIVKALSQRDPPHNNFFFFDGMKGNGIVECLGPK
# T1 sequence (Q9UBT2 whole entry): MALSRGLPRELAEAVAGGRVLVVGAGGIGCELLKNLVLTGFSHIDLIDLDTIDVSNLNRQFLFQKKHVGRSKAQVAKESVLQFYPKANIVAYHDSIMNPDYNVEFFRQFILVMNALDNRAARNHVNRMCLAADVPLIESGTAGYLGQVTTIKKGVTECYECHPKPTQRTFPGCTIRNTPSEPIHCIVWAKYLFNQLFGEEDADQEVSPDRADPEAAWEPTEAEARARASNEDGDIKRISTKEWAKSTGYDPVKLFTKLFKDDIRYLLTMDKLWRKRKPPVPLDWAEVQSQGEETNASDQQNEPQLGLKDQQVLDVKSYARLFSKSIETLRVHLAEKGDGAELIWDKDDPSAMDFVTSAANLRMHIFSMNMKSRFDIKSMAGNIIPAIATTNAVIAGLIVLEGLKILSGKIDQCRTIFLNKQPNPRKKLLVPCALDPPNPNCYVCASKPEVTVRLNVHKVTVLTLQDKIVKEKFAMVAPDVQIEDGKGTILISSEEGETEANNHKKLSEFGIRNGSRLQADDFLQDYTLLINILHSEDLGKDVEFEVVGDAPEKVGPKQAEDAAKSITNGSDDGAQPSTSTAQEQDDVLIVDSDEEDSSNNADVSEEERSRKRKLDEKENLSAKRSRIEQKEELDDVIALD
# Bcl-2-like protein 1, sequence (Q07817 whole entry): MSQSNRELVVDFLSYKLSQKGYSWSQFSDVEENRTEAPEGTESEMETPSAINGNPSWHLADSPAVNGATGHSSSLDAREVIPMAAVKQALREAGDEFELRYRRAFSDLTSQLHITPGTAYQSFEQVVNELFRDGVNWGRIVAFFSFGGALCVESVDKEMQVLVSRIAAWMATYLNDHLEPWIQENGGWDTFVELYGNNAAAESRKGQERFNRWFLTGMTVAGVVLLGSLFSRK
# Induced myeloid leukemia cell differentiation protein Mcl-1, sequence (Q07820 whole entry): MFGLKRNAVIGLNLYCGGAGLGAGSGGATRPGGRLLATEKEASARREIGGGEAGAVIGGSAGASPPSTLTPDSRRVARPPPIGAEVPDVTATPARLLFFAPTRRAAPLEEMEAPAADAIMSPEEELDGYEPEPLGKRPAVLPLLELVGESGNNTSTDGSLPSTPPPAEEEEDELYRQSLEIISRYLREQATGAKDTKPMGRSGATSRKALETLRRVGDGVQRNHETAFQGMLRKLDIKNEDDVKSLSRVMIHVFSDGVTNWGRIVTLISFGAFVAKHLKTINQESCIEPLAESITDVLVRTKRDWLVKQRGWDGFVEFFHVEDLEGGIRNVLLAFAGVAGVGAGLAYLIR
# Melanin-concentrating hormone receptor 1, sequence (Q99705 whole entry): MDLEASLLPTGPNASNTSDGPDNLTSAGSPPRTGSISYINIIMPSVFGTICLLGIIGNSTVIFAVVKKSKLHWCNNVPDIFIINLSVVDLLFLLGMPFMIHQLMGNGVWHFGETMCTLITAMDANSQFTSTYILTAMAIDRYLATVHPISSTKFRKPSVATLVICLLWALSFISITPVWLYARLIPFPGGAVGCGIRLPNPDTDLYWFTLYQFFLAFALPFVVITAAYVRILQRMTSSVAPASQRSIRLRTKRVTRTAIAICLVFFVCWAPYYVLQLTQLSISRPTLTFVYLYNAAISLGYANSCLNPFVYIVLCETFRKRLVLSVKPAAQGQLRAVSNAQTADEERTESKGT
# Paired box protein Pax-8, sequence (Q06710 whole entry): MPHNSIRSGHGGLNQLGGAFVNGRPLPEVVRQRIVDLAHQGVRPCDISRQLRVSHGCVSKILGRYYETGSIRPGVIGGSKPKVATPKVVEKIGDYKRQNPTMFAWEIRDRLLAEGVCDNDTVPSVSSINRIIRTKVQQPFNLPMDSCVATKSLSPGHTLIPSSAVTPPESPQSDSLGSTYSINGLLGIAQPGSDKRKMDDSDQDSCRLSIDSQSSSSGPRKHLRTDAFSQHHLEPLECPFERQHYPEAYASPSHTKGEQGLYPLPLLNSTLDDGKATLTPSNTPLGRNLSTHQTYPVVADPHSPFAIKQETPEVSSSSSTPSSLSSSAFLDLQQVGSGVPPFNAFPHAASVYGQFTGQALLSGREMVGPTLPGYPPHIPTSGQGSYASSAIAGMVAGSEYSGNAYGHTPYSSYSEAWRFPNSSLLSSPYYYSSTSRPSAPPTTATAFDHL
# Nonstructural protein 1, sequence (Q194T2 whole entry): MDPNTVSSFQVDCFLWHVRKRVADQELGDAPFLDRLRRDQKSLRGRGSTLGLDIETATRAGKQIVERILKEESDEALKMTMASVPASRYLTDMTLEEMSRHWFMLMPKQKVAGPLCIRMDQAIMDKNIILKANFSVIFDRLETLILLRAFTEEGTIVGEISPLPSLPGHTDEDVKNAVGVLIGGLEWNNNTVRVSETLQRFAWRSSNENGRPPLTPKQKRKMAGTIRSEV
# fMet-Leu-Phe receptor, sequence (P21462 whole entry, the tested form may be a part): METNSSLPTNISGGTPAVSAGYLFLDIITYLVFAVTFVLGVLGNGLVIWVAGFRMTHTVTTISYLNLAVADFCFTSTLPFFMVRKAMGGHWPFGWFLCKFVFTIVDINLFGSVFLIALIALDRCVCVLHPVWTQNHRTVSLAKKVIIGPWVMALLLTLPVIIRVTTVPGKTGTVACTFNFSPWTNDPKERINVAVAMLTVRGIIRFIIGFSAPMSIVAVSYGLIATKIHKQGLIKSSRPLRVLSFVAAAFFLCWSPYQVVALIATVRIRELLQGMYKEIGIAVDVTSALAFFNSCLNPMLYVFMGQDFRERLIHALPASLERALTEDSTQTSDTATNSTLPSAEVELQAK
smiles,measurement,setting,value
O=C1NC(=O)N(Cc2ccco2)C(=O)/C1=C/c1ccc(-c2cccc([N+](=O)[O-])c2)o1,IC50,Bcl-2-like protein 1,17.6 µM (not active)
same,IC50,SUMO-activating enzyme [1],6.08 µM (active)
same,IC50,[2],9.6 µM (active)
same,IC50,SUMO-activating enzyme [3],22.4 µM (active)
Clc1ccc(OCCSc2nnnn2C2CCCCC2)cc1,IC50,[4],9.04 µM (active)
same,IC50,[5],14.2 µM (not active)
COc1cccc(-c2nc(O)c3c4c(sc3n2)CCCCC4)c1,EC50,[6],0.303 µM (active)
same,EC50,H4,11.6 µM (active)
same,EC50,[7],< 0.1 µM (active)
same,EC50,[8],0.37 µM (active)
same,EC50,[9],1.36 µM (active)
N#Cc1ccc(-c2cccnc2)nc1SCc1ccc(Cl)c(Cl)c1,IC50,[4],5.69 µM (active)
same,IC50,[5],5.19 µM (active)
Cc1ccc(NC(Cc2cc(C)no2)c2ccccc2)cc1 (centres undefined),IC50,[10],9.47 µM (active)
same,IC50,[11],19.8 µM (not active)
Cc1cc2cc(CNC(=O)C(C)Oc3ccccc3)ccc2n1C (centres undefined),EC50,[12],> 50 µM (active)
CCNC(=O)c1ccc(C2SCC(=O)N2CCc2ccccc2)cc1 (centres undefined),EC50,[12],> 50 µM (active)
COc1ccccc1N1CCN(Cc2cc(Br)c(O)c3ncccc23)CC1,EC50,[13],19.4 µM (inconclusive)
same,IC50,[14],6.32 µM (active)
same,EC50,[15],6.15 µM (active)
same,EC50,[16],2.22 µM (active)
same,EC50,cells [17],8.13 µM (active)
same,IC50,Nonstructural protein 1,15.4 µM (active)
same,AC50,Paired box protein Pax-8,1.82 µM (active)
same,EC50,[18],1.34 µM (active)
same,EC50,cells [19],> 350 µM (not active)
same,AC50,INS1,3.95 µM (active)
same,EC50,[20],0.482 µM (active)
Clc1ccc(C2CC(c3cccs3)n3ncnc3N2)cc1Cl (centres undefined),Ki,fMet-Leu-Phe receptor,> 66.7 µM (inactive)
same,AC50,[21],7.81 µM (active)
same,AC50,[22],7.08 µM (active)
same,IC50,[10],> 4.87 µM (active)
same,AC50,[23],7.3 µM (active)
same,AC50,[24],6.95 µM (active)
same,AC50,[25],56.8 µM (active)
same,IC50,[11],16 µM (not active)
CCOC(=O)C1=C(C)NC(=O)NC1c1ccco1 (centres undefined),IC50,Estrogen receptor beta [26],< 0.023 µM (not active)
same,IC50,Estrogen receptor beta [27],9.28 µM (active)
O=C(CNc1cccc2ccccc12)N/N=C/c1ccc(C(=O)O)cc1,IC50,Bcl-2-like protein 1,> 109 µM (not active)
same,IC50,[2],26.6 µM (not active)
Cc1ccc(-c2c(C)s/c(=N\C(=O)c3ccco3)n2C)cc1,EC50,[6],> 12 µM (not active)
same,EC50,[7],< 0.1 µM (active)
same,EC50,[8],0.469 µM (active)
same,EC50,[9],0.354 µM (active)

# From ChEMBL document CHEMBL1201862, “PubChem BioAssay data set” (2004)
